Laboratory results from PubChem BioAssay AID192 (DTP/NCI, 2004).
Values joined by “and” are separate entries in the source; they are usually repeats but may differ in a detail not shown here. Equal entries are not always repeated. Inconclusive results and toxic doses are left out.

Tested on: BDF1 mice, B16 melanoma ip, median survival T/C
Test: NCI In Vivo Anticancer Drug Screen. Data for tumor model B16 Melanoma (intraperitoneal) in B6D2F1 (BDF1) mice
Conditions: endpoint: median survival time, higher = longer survival
How it was run: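 Compounds were tested in mice carrying transplantable tumors. Survival or tumor size was recorded, and each value is the treated-group measurement (T) divided by that of the vehicle-treated control group (C).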

[1] = dose: 6.25 mg/kg/injection, schedule: Q01DX009 (ip), vehicle: saline with Tween-80
[2] = dose: 12.5 mg/kg/injection, schedule: Q01DX009 (ip), vehicle: saline with Tween-80
[3] = dose: 12.5 mg/kg/injection, schedule: Q01DX009 (ip), vehicle: saline
[4] = dose: 25.0 mg/kg/injection, schedule: Q01DX009 (ip), vehicle: saline with Tween-80
[5] = dose: 25.0 mg/kg/injection, schedule: Q01DX009 (ip), vehicle: saline
[6] = dose: 50.0 mg/kg/injection, schedule: Q01DX009 (ip), vehicle: saline with Tween-80
[7] = dose: 50.0 mg/kg/injection, schedule: Q01DX009 (ip), vehicle: saline
[8] = dose: 100.0 mg/kg/injection, schedule: Q04DX003 (ip), vehicle: Klucel (hydroxypropylcellulose) (HPC)
[9] = dose: 100.0 mg/kg/injection, schedule: Q01DX009 (ip), vehicle: saline
[10] = dose: 100.0 mg/kg/injection, schedule: Q01DX009 (ip), vehicle: saline with Tween-80
[11] = dose: 1.56 mg/kg/injection, schedule: Q01DX009 (ip), vehicle: saline with Tween-80
[12] = dose: 3.13 mg/kg/injection, schedule: Q01DX009 (ip), vehicle: saline with Tween-80
[13] = dose: 200.0 mg/kg/injection, schedule: Q01DX009 (ip), vehicle: saline with Tween-80
[14] = dose: 400.0 mg/kg/injection, schedule: Q01DX009 (ip), vehicle: saline with Tween-80
[15] = dose: 50.0 mg/kg/injection, schedule: Q01DX009 (ip), vehicle: Klucel (hydroxypropylcellulose) (HPC)
[16] = dose: 100.0 mg/kg/injection, schedule: Q01DX009 (ip), vehicle: Klucel (hydroxypropylcellulose) (HPC)
[17] = dose: 200.0 mg/kg/injection, schedule: Q01DX009 (ip), vehicle: Klucel (hydroxypropylcellulose) (HPC)

NC(=S)N/N=C\c1nccc2c(N)cccc12
T/C [1]: 115 % of control and 120 % of control
T/C (dose: 6.25 mg/kg/injection, schedule: Q01DX009 (ip), vehicle: saline): 160 % of control
T/C [2]: 119 % of control
T/C [3]: 172 % of control
T/C (dose: 18.8 mg/kg/injection, schedule: Q04DX003 (ip), vehicle: saline): 155 % of control
T/C [4]: 156 % of control
T/C [5]: 179 % of control
T/C (dose: 37.5 mg/kg/injection, schedule: Q04DX003 (ip), vehicle: saline): 168 % of control
T/C [6]: 164 % of control and 175 % of control
T/C [7]: 197 % of control
T/C (dose: 75.0 mg/kg/injection, schedule: Q01DX009 (ip), vehicle: saline with Tween-80): 150 % of control and 153 % of control and 165 % of control
T/C (dose: 75.0 mg/kg/injection, schedule: Q04DX003 (ip), vehicle: saline): 168 % of control
T/C (dose: 150.0 mg/kg/injection, schedule: Q04DX003 (ip), vehicle: saline): 179 % of control

COc1ccccc1N1CCN(CCc2c[nH]c3cc4c(cc23)OCO4)CC1
T/C (dose: 1.56 mg/kg/injection, schedule: Q01DX009 (ip), vehicle: Klucel (hydroxypropylcellulose) (HPC)): 89 % of control
T/C (dose: 6.25 mg/kg/injection, schedule: Q01DX009 (ip), vehicle: Klucel (hydroxypropylcellulose) (HPC)): 89 % of control

C=CCc1c(C)ccc(C)c1OC
T/C (dose: 25.0 mg/kg/injection, schedule: Q04DX003 (ip), vehicle: Klucel (hydroxypropylcellulose) (HPC)): 102 % of control
T/C (dose: 50.0 mg/kg/injection, schedule: Q04DX003 (ip), vehicle: Klucel (hydroxypropylcellulose) (HPC)): 101 % of control
T/C [8]: 93 % of control

Cc1ccn2ncnc2c1
T/C [7]: 89 % of control
T/C [9]: 86 % of control

CC(=O)OC1C(OC(C)=O)C2C(C)CC3OC(=O)C(C)C3CC2(C)C1OC(C)=O (configuration not stated)
T/C [4]: 111 % of control
T/C [6]: 110 % of control
T/C [10]: 106 % of control

CCCCCCC(=O)CCCCCCCCCCCCC(=O)OC
T/C [11]: 98 % of control
T/C [12]: 105 % of control
T/C [1]: 97 % of control

Cc1ccc(C(=O)CCCCl)cc1C
T/C [10]: 100 % of control
T/C [13]: 106 % of control
T/C [14]: 97 % of control

CCOC(=O)CCCN(c1ccccc1CC(=O)OCC)S(C)(=O)=O
T/C [8]: 96 % of control
T/C (dose: 200.0 mg/kg/injection, schedule: Q04DX003 (ip), vehicle: Klucel (hydroxypropylcellulose) (HPC)): 104 % of control
T/C (dose: 400.0 mg/kg/injection, schedule: Q04DX003 (ip), vehicle: Klucel (hydroxypropylcellulose) (HPC)): 96 % of control

CCCCCCCCCCN1CCC(N2CCCCC2)CC1
T/C [3]: 91 % of control
T/C [5]: 93 % of control
T/C [7]: 98 % of control
T/C [9]: 87 % of control

O=S(=O)(O)O.[O]=[V]
T/C [11]: 87 % of control
T/C [12]: 97 % of control
T/C [1]: 94 % of control

CN(C)c1n[nH]c(N)n1
T/C [3]: 91 % of control
T/C [5]: 102 % of control
T/C [7]: 95 % of control
T/C [9]: 96 % of control
T/C (dose: 200.0 mg/kg/injection, schedule: Q01DX009 (ip), vehicle: saline): 102 % of control
T/C (dose: 400.0 mg/kg/injection, schedule: Q01DX009 (ip), vehicle: saline): 104 % of control

CCN(CC)C(=S)SC(=S)N(CC)CC
T/C [10]: 96 % of control
T/C [13]: 103 % of control
T/C [14]: 93 % of control

CC(C)(C)C1CCCCC1
T/C (dose: 12.5 mg/kg/injection, schedule: Q01DX009 (ip), vehicle: Klucel (hydroxypropylcellulose) (HPC)): 96 % of control
T/C (dose: 25.0 mg/kg/injection, schedule: Q01DX009 (ip), vehicle: Klucel (hydroxypropylcellulose) (HPC)): 105 % of control
T/C [15]: 95 % of control
T/C [16]: 88 % of control

c1cc2c(c(NC3=NCCCS3)c1)CCCC2
T/C [15]: 106 % of control
T/C [16]: 96 % of control
T/C [17]: 96 % of control

CCOC(=O)/C=C/c1c[nH]c(C(=O)OCC)c1
T/C [15]: 102 % of control
T/C [16]: 96 % of control
T/C [17]: 99 % of control
T/C (dose: 400.0 mg/kg/injection, schedule: Q01DX009 (ip), vehicle: Klucel (hydroxypropylcellulose) (HPC)): 98 % of control

CC1=CCC(C(C)(C)c2ccc(O)cc2)CC1 (configuration not stated)
T/C [1]: 96 % of control
T/C [2]: 105 % of control
T/C [4]: 102 % of control and 106 % of control
